The values that follow come from US20140066469A1, “TREATMENT OF DISEASES ASSOCIATED WITH INFLAMMATION” (Department of Veterans Affairs, priority 2012, published 2014).

Where two headings read alike, the source gives them in different places.

Data set [1] deals with retinal ganglion cell layer (GCL). The text has this:
After 3 months, mice were sacrificed, and their eyes were carefully isolated by microdissection. The eyes were fixed in formalin and sectioned to allow visualization of the retina.

Data set [2] in a line: Patient case example, LDL cholesterol (Example 14). The data set is classed as in vivo, humans. The settings on record: person, baseline 140 mg/dL, over several months.
For data set [3], the system named is inflammatory cytokines in OA synovium. Briefly: Multiplex cytokine analysis of synovium from DMM joints. The settings on record: HCQ sulfate 100 mg/kg/day or atorvastatin calcium 40 mg/kg/day, 3 months; vs vehicle. The data set is classed as in vivo, C57BL6 (B6) mice. The method, then: FIG. 14. […] 3 months after surgery, the mice were sacrificed and the synovium of the operated joint isolated. The collected synovial membrane tissues were used to generate protein lysates, on which multiplex cytokine analysis was performed using the Luminex System and the Bio-Rad BioPlex 23plex mouse cytokine detection kit. Each sample was run in triplicate. […] (A) Heatmap presenting the relative levels (as compared to mean levels in the vehicle-control treated group). (B) Bar-graph display of mean cytokine levels for the indicated treatment groups.
After 3 months, mice were sacrificed, their joints harvested, and synovial tissue isolated from the joint by microdissection. The synovial tissues were homogenized and centrifuged, and the resulting supernatants were assayed for levels of inflammatory cytokines by using a multiplex bead-based cytokine assay (BioRad Laboratories, Hercules, Calif.).

The conditions of data set [4]: oral; cited from earlier work.
The conditions of data set [5]: currently FDA-approved doses; cited from earlier work.
For data set [6] the following is noted: cited from earlier work.
Data set [7] deals with osteoarthritis (OA) induced by destabilization of the medial meniscus (DMM). Briefly: DMM mouse model of OA, histological scoring of stifle joints. The data set is classed as in vivo, C57BL6 (B6) mice. To be noted: Example 1; HCQ sulfate 100 mg/kg/day and/or atorvastatin calcium 40 mg/kg/day, oral gavage, 12 weeks; t test. The method, then: Experiments were performed under protocols approved by the Stanford University Committee of Animal Research and in accordance with NIH guidelines.

For the next data set, the system named is non-erosive OA. The settings on record: general non-erosive human OA; cited from earlier work.
Another data set relates to retina. The settings on record: cited from earlier work; for ophthalmoscopically visualized loss of retinal pigmented epithelium (eye toxicity): treated humans after 5 years.
Setting [8] is: coadministered with HCQ vs methotrexate alone.

For `CC(C)c1c(C(=O)Nc2ccccc2)c(-c2ccccc2)c(-c2ccc(F)cc2)n1CC[C@@H](O)C[C@@H](O)CC(=O)O` [Atorvastatin, atorvastatin], the “number of nuclei in the GCL (viable retinal ganglion cells)” value in data set [1] (3 months, vs vehicle, two-tailed t test) was “did not differ”. The “disarrangement of the GCL” value in data set [1] (HCQ sulfate 100 mg/kg/day and/or atorvastatin calcium 40 mg/kg/day, 3 months) is “no disarrangement”. This molecule also had an LDL cholesterol in [2] of 115 mg/day. Further, the “levels of inflammatory cytokines in OA synovium” value in data set [3] was “lower”. Moreover, the “systemic availability for HMG-CoA reductase activity” value in data set [4] was “approximately 30%”.
The term Tmax denotes the time at which the peak concentration occurs. As a reminder, the Vd is a proportionality between amount in the body and measured concentration, not a real space. On to `CCN(CCO)CCCC(C)Nc1ccnc2cc(Cl)ccc12` (centres unmarked) [HCQ, hydroxychloroquine], for which, in data set [5], the “Oral Bioavailability” value was 89%, the T1/2 was 41 days, the “Tmax” value is 0.083 to 0.12 days and the “Vd” value is recorded as 605 L. For the same molecule, in [6] (between dosing occasions), the “AUC of HCQ” value is reported as “no significant difference”. In data set [1] (mouse, in vivo), the “number of nuclei in the GCL (viable retinal ganglion cells)” value is listed as “significantly lower”. Moreover, in data set [7], the “Osteophyte score (osteophyte formation)” value is given as “not as potent” and the Synovitis score entry is reported as “not as potent”. For the same molecule, in the data set on non-erosive OA, the “disease-modifying or pain-reducing activity” value is “failed to demonstrate”. Moreover, the “levels of inflammatory cytokines in OA synovium” value in [3] is listed as “lower”. In the data set on retina (after 5-7 years of use), the retinal toxicity is listed as ~1%. Also, in the data set on retina (conventional doses of HCQ (400 mg/day common)), the “prevalence of retinal toxicity” value was 6.8 users per 1,000. Besides, in the data set with retina (patients), the “clinically apparent eye toxicity” value is listed as “less than 1%”. The “ophthalmoscopically visualized loss of retinal pigmented epithelium (eye toxicity)” value in the data set on retina is 1%. For the same molecule, the “physician discontinuation for earlier eye problems” value in the data set with retina (treated patients over 5 years) is recorded as ~7%.
Take `CCN(CC)CCCC(C)Nc1ccnc2cc(Cl)ccc12` (centres unmarked) [chloroquine]: in the data set on retina, the “ophthalmoscopically visualized loss of retinal pigmented epithelium (eye toxicity)” value is “considerably higher”.
In the case of `CN(Cc1cnc2nc(N)nc(N)c2n1)c1ccc(C(=O)N[C@@H](CCC(=O)O)C(=O)O)cc1` [methotrexate], in data set [6] (setting [8]), the “maximum methotrexate concentration (Cmax)” value is given as “decreased” and the “mean area under the concentration-time curve (AUC) for methotrexate” value is given as “increased”.
